We go through four molecules from patent publication US12569473B2, “Methods to treat respiratory infection utilizing castanospermine analogs” (60 Degrees Pharmaceuticals, Inc., priority 2022, dated 2026).

Data set [1] has as its system human rhinovirus-14. The experiment in a line: CPE inhibition assay, visual examination, human rhinovirus-14. Particulars: for EC50: visual examination, HeLa Ohio cells, unit inferred. The format is cell-based. Here is the method:
(§1) The efficacy of celgosivir and castanospermine against RSV and human rhinovirus-14 was assessed in vitro. For RSV studies, embryonic African green monkey kidney cells (MA-104) were grown in minimal essential medium (MEM) supplemented with 0.1% NaHCO3 and 10% fetal bovine serum. When performing antiviral assays, serum was reduced to 2% and […] gentamicin was added to the medium. RSV strain A2 was used for the studies. For rhinovirus studies, the HeLa Ohio cell line was used in place of MA-104 cells.
(§2) CPE inhibition assays with visual quantification of antiviral activity and cytotoxicity were performed as described by Sidwell and Huffman (1971) with slight modifications. Sidwell, R. W. and Huffman, J. H. (1971) Use of disposable micro-tissue culture plates for antiviral and interferon induction studies. Appl. Microbiol. 22, […]. […] All compounds were assayed for virus inhibition in quadruplicate and for cytotoxicity in duplicate. For rhinovirus studies, Pirodavir was applied at a concentration of 0.001-1 μg/ml as the positive control compound. For RSV studies, the positive control compound was Ribavirin applied at a concentration of 0.5-500 μg/ml. For each compound, two wells were set aside as uninfected, untreated cell controls per test and four wells per test received virus only and represented controls for virus replication. […] For all CPE-based assays, the 50% effective concentration (EC50) was calculated by regression analysis using the means of the CPE ratings at each concentration of compound. Morphological changes due to compound cytotoxicity were graded on a scale of 0-5; grade 5 was defined as 100% cytotoxicity. The 50% cytotoxic dose (IC50) was calculated by regression analysis. A selective index (S.I.) was calculated for each compound (SI.=(IC50)/(EC50)).

Data set [2] concerns human rhinovirus-14. Briefly: Neutral red assay of CPE inhibition, human rhinovirus-14. As to conditions: HeLa Ohio cells, unit inferred. The class given is cell-based. The procedure:
as §1
(§3) CPE inhibition assays with visual quantification of antiviral activity and cytotoxicity were performed as described by Sidwell and Huffman (1971) with slight modifications. Sidwell, R. W. and Huffman, J. H. (1971) Use of disposable micro-tissue culture plates for antiviral and interferon induction studies. Appl. Microbiol. 22, […]. […] All compounds were assayed for virus inhibition in quadruplicate and for cytotoxicity in duplicate. For rhinovirus studies, Pirodavir was applied at a concentration of 0.001-1 μg/ml as the positive control compound. For RSV studies, the positive control compound was Ribavirin applied at a concentration of 0.5-500 μg/ml. For each compound, two wells were set aside as uninfected, untreated cell controls per test and four wells per test received virus only and represented controls for virus replication. […] A selective index (S.I.) was calculated for each compound (SI.=(IC50)/(EC50)).
(§4) Neutral red assay of CPE inhibition and cytotoxicity was performed by a modified method as described by Cavenaugh et al. (1990). […] Briefly, medium was removed from each well of a plate scored for CPE from the visual CPE inhibition assay, 0.2 ml of neutral red (0.034% in PSS) was added to each of the wells of that plate and the plate incubated for 2 h at 37° C. in the dark. […] Absorbances at 540 and 450 nm were read with a microplate reader (Bio-Tek EL 1309; Bio-Tek Instruments). […] Absorbance values were expressed as percentages of untreated controls and EC50 and IC50 values were calculated by regression analysis

The nature of data set [3]: Cytotoxicity, visual examination, HeLa Ohio cells. The format is cell-based. As to conditions: human, unit inferred. The procedure:
as §1, §2

Data set [4] in a line: Cytotoxicity, neutral red assay, HeLa Ohio cells. The class given is cell-based. Particulars: human, unit inferred. The procedure:
as §1, §3, §4

Data set [5] concerns RSV strain A2. The experiment in a line: CPE inhibition assay, visual examination, RSV. The format is cell-based. Particulars: human respiratory syncytial virus, MA104, visual examination, MA-104 cells, unit inferred. The procedure:
as §1, §2

Data set [6] deals with RSV strain A2. Briefly: Neutral red assay of CPE inhibition, RSV. The class given is cell-based. Particulars: human respiratory syncytial virus, MA104, MA-104 cells, unit inferred. Here is the method:
as §1, §3, §4

The nature of data set [7]: Cytotoxicity, visual examination, MA-104 cells. The format is cell-based, African green monkey. As to conditions: African green monkey. Here is the method: as §1, §2
Data set [8] deals with embryonic African green monkey kidney cells (MA-104). The experiment in a line: Cytotoxicity, visual examination, MA-104 cells. The class given is cell-based. Here is the method:
as §1, §2

A short description of data set [9]: Cytotoxicity, neutral red assay, MA-104 cells. The class given is cell-based. Particulars: African green monkey, MA-104 cells (embryonic African green monkey kidney), unit inferred. The procedure:
as §1, §3, §4

The conditions of data set [10]: mice; 50 mg/kg BID dose; cited from earlier work.
The conditions of data set [11]: CELADEN study regimen; cited from earlier work.
For data set [12], the system named is RSV [strain A/A2]. Briefly: Pulmonary histopathology in RSV-infected cotton rats. The format is in vivo, Cotton rats [Sigmodon hispidus]. Particulars: Day 5 post infection, celgosivir 25, 50 or 100 mg/kg BID from one day before or after infection, synagis 2.5 mg/kg i.m. once per day, vs vehicle. Here is the method:
(§5) Cotton rats [Sigmodon hispidus, 2 male & 3 female, 6-8 weeks old] provided with standard rodent chow and water ad lib, were infected intranasally with RSV [strain A/A2, 10^5 pfu] on Day 0. Animals received celgosivir [25, 50 or 100 mg/kg BID for total daily doses of 50, 100 or 200 mg/kg] daily beginning one day before or after infection and were sacrificed on Day 5-post-infection for histopathology, qPCR, and viral load assessment. Control groups included a [i] positive control Synagis [2.5 mg/kg, i.m, once per day from the first day post-infection], [ii] vehicle control in which vehicle was administered twice per day beginning one day prior to RSV infection, [iii] a vehicle control group that were mock-infected with PBS for which treatment was initiated beginning one day prior to infection, and [iv] an untreated group mock infected with PBS that received no treatment. Animals were weighed on Day −1 and Day 5, and plasma was obtained by retro-orbital bleed on the same days.
(§6) The RSV strain for inoculation [A/A2 (RSV A/A2) (ATCC, Manassas, VA)] was propagated in HEp-2 cells after serial plaque-purification to reduce defective-interfering particles. A pool of virus designated containing approximately 3.0×10^8 pfu/mL in sucrose stabilizing media was used in the experiment. This stock of virus was stored at −80° C. and was previously characterized in vivo in the cotton rat model and validated for upper and lower respiratory tract replication.
Pulmonary Histopathology: Lungs were removed and inflated with 10% neutral buffered formalin to their normal volume, then fixed [using the same solution]. After fixation, lungs were embedded in paraffin, sectioned, and stained with H&E. Four parameters of pulmonary inflammation were evaluated: peribronchiolitis (inflammatory cell infiltration around the bronchioles), perivasculitis (inflammatory cell infiltration around the small blood vessels), interstitial pneumonia (inflammatory cell infiltration and thickening of alveolar walls), and alveolitis (cells within the alveolar spaces). Slides were blindly scored on a 0-4 severity scale. The scores are subsequently converted to a 0-100% normalized scale.
Statistics: Group means for each parameter were evaluated by one-way ANOVA, then individual group means were compared [t-test, with multiple comparison correction] to the RSV-infected, vehicle-treated control group. P<0.05 was considered statistically significant.

Data set [13] relates to RSV [strain A/A2]. The experiment in a line: Nose and lung viral titers in RSV-infected cotton rats. Particulars: Day 5 post infection, celgosivir 25, 50 or 100 mg/kg BID from one day before or after infection, synagis 2.5 mg/kg i.m. once per day, vs vehicle. The format is in vivo, Cotton rats [Sigmodon hispidus]. Here is the method: as §5, §6
Viral Titers: Nose and lung homogenates were centrifuged and diluted in EMEM. Confluent HEp-2 monolayers were infected in duplicate with diluted homogenates in 24-well plates. Following one hour incubation at 37° C. […] Plaques were counted and virus titer determined as geometric mean plaque-forming units per gram of tissue±standard error for all animals in a group at a given time.
Statistics: Group means for each parameter were evaluated by one-way ANOVA, then individual group means were compared [t-test, with multiple comparison correction] to the RSV-infected, vehicle-treated control group. […]

The mark [14] stands for this setting: compounds tested at 0.3, 3, 30 and 300 microM.
Where [15] appears, read: positive control applied at 0.001-1 μg/ml.
Where [16] appears, read: positive control applied at 0.5-500 μg/ml.

A value given as a limit tells only on which side of the number the result lay.

For the molecule `O[C@H]1[C@H](O)[C@@H](O)CN2CC[C@H](O)[C@H]12` [Castanospermine], the “efficacy against human rhinovirus-14” value in the data set on human rhinovirus-14 [1] (at the concentrations tested (0.3-300 microM)) is listed as “Neither celgosivir nor castanospermine were determined to be efficacious”. Also, the EC50 in the data set with human rhinovirus-14 [1] (setting [14]), in the data set on human rhinovirus-14 [2] (setting [14]), with RSV strain A2 [5] (setting [14]) and in the data set with RSV strain A2 [6] (setting [14]) was more than 300 µM throughout. Besides, the CC50 at 6 days in data set [3] (setting [14]), in data set [4] (setting [14]), in data set [7] (CC50) and in data set [9] (setting [14]) was more than 300 µM each time. In addition, in data set [8], the “safety in vitro (CC50 above the highest concentration tested)” value is given as “safe at all concentrations tested”. For the same molecule, in data set [10], the “steady state minimum castanospermine concentration” value is 400 nanograms/ml. Besides, the “steady state maximum castanospermine concentration” value in data set [11] is on record as 5100 nanograms/ml.

`CCOC(=O)c1ccc(OCCC2CCN(c3ccc(C)nn3)CC2)cc1` [Pirodavir, reference compound]: the EC50 – broadly, the concentration giving half of the maximal effect – was 0.032 µg/mL with human rhinovirus-14 [1] (setting [15]) and 0.031 µg/mL with human rhinovirus-14 [2] (setting [15]). Moreover, the CC50 at 6 days in [3] (setting [15]) and in [4] (setting [15]) was more than 1 µg/mL each time.

Take `NC(=O)c1ncn([C@@H]2O[C@H](CO)[C@@H](O)[C@H]2O)n1` [Ribavirin, reference compound]: the EC50 in the data set on RSV strain A2 [5] (setting [16]) worked out at 4 µg/mL; in the data set on RSV strain A2 [6] (setting [16]), 2.8 µg/mL. In addition, the CC50 (usually the concentration giving 50% cytotoxicity) at 6 days stood at 340 µg/mL in data set [7] (MA-104 cells (embryonic African green monkey kidney), visual examination, MA-104 cells, positive control applied at 0.5-500 μg/ml, unit inferred, read-out: CC50) and 62 µg/mL in data set [9] (setting [16]).

With “Synagis: positive control in cotton rat RSV study, 2.5 mg/kg i.m. once per day”, the “lung histopathology scores (RSV-induced inflammation)” value with RSV [strain A/A2] [12] is “statistically significant reductions across all four histopathology domains”. In addition, in the data set on RSV [strain A/A2] [13], the “nasal and lung viral titer” value was “decrease viral titer”.
